Drawing on patent US8716281B2, “Pyrimidine compounds that inhibit anaplastic lymphoma kinase” (Amgen Inc., priority 2010, dated 2014), this text covers IC50 for 31 molecules.

In the assay the target is T1, wild-type human ALK cytoplasmic domain (amino acids 1058-1620) (Homo sapiens, UniProt Q9UM73).
T1 construct: The cytoplasmic domain (amino acids 1058-1620) of wild-type human ALK; GST (N); made in house; host or cells: SF9 insect cells
Briefly: ALK Inhibition in Enzyme Assay (Lance TR-FRET). Type of assay: biochemical. Particulars: 2 nM enzyme, ATP at 40 μM (Km apparent), 90 minutes, mean of three replicates; read-out: ALK IC50. Summed up: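 TR-FRET read-out (Eu-W1024 PT66 anti-phosphotyrosine plus streptavidin-allophycocyanin, 320 nm excitation) quantified biotinylated peptide phosphorylation by the purified kinase. Reaction ran 90 minutes at room temperature before quenching with 20 mM EDTA in Tris pH 7.5 buffer with NaCl, BSA and Tween-20.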

pIC50: −log10 of the molar value.

T1 sequence (Q9UM73 1058-1620): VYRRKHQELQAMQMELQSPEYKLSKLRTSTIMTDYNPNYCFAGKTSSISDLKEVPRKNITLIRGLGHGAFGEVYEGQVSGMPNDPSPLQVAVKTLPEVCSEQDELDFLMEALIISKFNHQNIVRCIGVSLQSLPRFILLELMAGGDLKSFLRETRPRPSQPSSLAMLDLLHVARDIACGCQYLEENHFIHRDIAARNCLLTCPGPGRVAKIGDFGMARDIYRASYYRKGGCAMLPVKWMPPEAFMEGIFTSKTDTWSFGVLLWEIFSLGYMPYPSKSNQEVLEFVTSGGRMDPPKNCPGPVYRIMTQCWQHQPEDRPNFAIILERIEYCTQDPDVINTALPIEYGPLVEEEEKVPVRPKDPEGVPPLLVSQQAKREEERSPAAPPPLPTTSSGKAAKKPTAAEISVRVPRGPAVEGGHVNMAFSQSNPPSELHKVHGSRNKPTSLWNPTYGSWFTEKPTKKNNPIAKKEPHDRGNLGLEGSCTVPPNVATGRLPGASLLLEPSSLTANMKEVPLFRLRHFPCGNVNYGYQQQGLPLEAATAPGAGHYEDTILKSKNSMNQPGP

With `COc1cc(Nc2nccc(N3CCC[C@H](C(=O)NC(C#N)c4ccc(OC(F)(F)F)cc4)C3)n2)cc(OC)c1OC` (stereo partly drawn) [Example 127, (S)-N-(cyano(4-(trifluoromethoxy)phenyl)methyl)-1-(2-(3,4,5-trimethoxyphenylamino)pyrimidin-4-yl)piperidine-3-carboxamide], the pIC50 is more than 7.30.
The value for `Cc1ccc(CNC(=O)[C@H]2CCCN(c3ccnc(Nc4cnc5ccccc5c4)n3)C2)cc1` [Example 130, (3S)-N-(4-methylbenzyl)-1-(2-(3-quinolinylamino)-4-pyrimidinyl)-3-piperidinecarboxamide] was 5.30 to 6.00; that for `Cc1ccc(CNC(=O)[C@H]2CCCN(c3ccnc(Nc4ccc5[nH]ccc5c4)n3)C2)cc1` [Example 131, (3S)-1-(2-(1H-indol-5-ylamino)-4-pyrimidinyl)-N-(4-methylbenzyl)-3-piperidinecarboxamide] was 5.30 to 6.00; that for `COc1ccccc1Nc1nccc(N2CCC[C@H](C(=O)NCc3ccc(C)cc3)C2)n1` [Example 133, (3S)-1-(2-((2-methoxyphenyl)amino)-4-pyrimidinyl)-N-(4-methylbenzyl)-3-piperidinecarboxamide] was 5.30 to 6.00.
The value for `Cc1ccc(CNC(=O)[C@H]2CCCN(c3ccnc(Nc4cccc(C(F)(F)F)c4)n3)C2)cc1` [Example 137, (3S)-N-(4-methylbenzyl)-1-(2-((3-(trifluoromethyl)phenyl)amino)-4-pyrimidinyl)-3-piperidinecarboxamide] was 5.30 to 6.00; that for `COc1ccc(NC(C)=O)cc1Nc1nccc(N2CCC[C@H](C(=O)NCc3ccc(C)cc3)C2)n1` [Example 138, (3S)-1-(2-((5-(acetylamino)-2-methoxyphenyl)amino)-4-pyrimidinyl)-N-(4-methylbenzyl)-3-piperidinecarboxamide] was 5.30 to 6.00; that for `Cc1ccc(CNC(=O)[C@H]2CCCN(c3ccnc(Nc4ccc(N5CCOCC5)cc4)n3)C2)cc1` [Example 139, (3S)-N-(4-methylbenzyl)-1-(2-((4-(4-morpholinyl)phenyl)ami-no)-4-pyrimidinyl)-3-piperidinecarboxamide] was 5.30 to 6.00.
Under `Cc1ccc(CNC(=O)[C@H]2CCCN(c3ccnc(Nc4cccc5c4CNC5=O)n3)C2)cc1` [Example 141, (3S)-N-(4-methylbenzyl)-1-(2-((1-oxo-2,3-dihydro-1H-isoindol-4-yl)amino)-4-pyrimidinyl)-3-piperidinecarboxamide] stands 6.00 to 7.00; under `CC(=O)N1CC(C)(C)c2ccc(Nc3nccc(N4CCC[C@H](C(=O)NCc5ccc(C)cc5)C4)n3)cc21` [Example 142, (3S)-1-(2-((1-acetyl-3,3-dimethyl-2,3-dihydro-1H-indol-6-yl)amino)-4-pyrimidinyl)-N-(4-methylbenzyl)-3-piperidinecarboxamide], 5.30 to 6.00.
On to `Cc1ccc(CNC(=O)[C@H]2CCCN(c3ccnc(Nc4cccc(Cn5nccn5)c4)n3)C2)cc1` [Example 143, (3S)-N-(4-methylbenzyl)-1-(2-((3-(2H-1,2,3-triazol-2-ylmethyl)phenyl)amino)-4-pyrimidinyl)-3-piperidinecarboxamide], for which the pIC50 was 6.00 to 7.00.
The value for `Cc1ccc(CNC(=O)[C@H]2CCCN(c3ccnc(Nc4cc(C5CCN(C(=O)OC(C)(C)C)CC5)[nH]n4)n3)C2)cc1` [Example 144, tert-butyl 4-(3-((4-((3S)-3-((4-methylbenzyl)carbamoyl)-1-piperidinyl)-2-pyrimidinyl)amino)-1H-pyrazol-5-yl)-1-piperidinecarboxylate] was 5.30 to 6.00; that for `Cc1ccc(CNC(=O)[C@H]2CCCN(c3ccnc(Nc4cc(-c5ccc(C)cc5)[nH]n4)n3)C2)cc1` [Example 145, (3S)-N-(4-methylbenzyl)-1-(2-((5-(4-methylphenyl)-1H-pyrazol-3-yl)amino)-4-pyrimidinyl)-3-piperidinecarboxamide] was 5.00 to 5.30.
The value for `COc1cc(Nc2nccc(N3CCC[C@H](C(=O)NCc4ccc(C)cc4)C3)n2)cc2c1OCCO2` [Example 146, (3S)-1-(2-((8-methoxy-2,3-dihydro-1,4-benzodioxin-6-yl)amino)-4-pyrimidinyl)-N-(4-methylbenzyl)-3-piperidinecarboxamide] was 6.00 to 7.00; that for `Cc1ccc(CNC(=O)[C@H]2CCCN(c3ccnc(Nc4ccc(=O)n(C)c4)n3)C2)cc1` [Example 147, (3S)-N-(4-methylbenzyl)-1-(2-((1-methyl-6-oxo-1,6-dihydro-3-pyridinyl)amino)-4-pyrimidinyl)-3-piperidinecarboxamide] was 5.00 to 5.30.
Turning to `CCOc1cccc(Nc2nccc(N3CCC[C@H](C(=O)NCc4ccc(C)cc4)C3)n2)c1` [Example 148, (3S)-1-(2-((3-ethoxyphenyl)amino)-4-pyrimidinyl)-N-(4-methylbenzyl)-3-piperidinecarboxamide], the negative logarithm of the IC50 (pIC50) was 6.00 to 7.00.
The value for `Cc1ccc(CNC(=O)[C@H]2CCCN(c3ccnc(Nc4cccc(Oc5ccccc5)c4)n3)C2)cc1` [Example 149, (3S)-N-(4-methylbenzyl)-1-(2-((3-phenoxyphenyl)amino)-4-pyrimidinyl)-3-piperidinecarboxamide] was 6.00 to 7.00; that for `Cc1ccc(CNC(=O)[C@H]2CCCN(c3ccnc(Nc4cccc(C(=O)c5ccccc5)c4)n3)C2)cc1` [Example 150, (3S)-N-(4-methylbenzyl)-1-(2-((3-(phenylcarbonyl)phenyl)amino)-4-pyrimidinyl)-3-piperidinecarboxamide] was 6.00 to 7.00; that for `Cc1ccc(CNC(=O)[C@H]2CCCN(c3ccnc(Nc4cccc(S(N)(=O)=O)c4)n3)C2)cc1` [Example 151, (3S)-N-(4-methylbenzyl)-1-(2-((3-sulfamoylphenyl)amino)-4-pyrimidinyl)-3-piperidinecarboxamide] was 6.00 to 7.00.
Under `Cc1ccc(CNC(=O)[C@H]2CCCN(c3ccnc(Nc4cccc(Cc5ccccc5)c4)n3)C2)cc1` [Example 152, (3S)-1-(2-((3-benzylphenyl)amino)-4-pyrimidinyl)-N-(4-methylbenzyl)-3-piperidinecarboxamide] stands 6.00 to 7.00; under `Cc1ccc(CNC(=O)[C@H]2CCCN(c3ccnc(Nc4cc(C(C)(C)C)cc(C(C)(C)C)c4)n3)C2)cc1` [Example 153, (3S)-1-(2-((3,5-di-tert-butylphenyl)amino)-4-pyrimidinyl)-N-(4-methylbenzyl)-3-piperidinecarboxamide], 5.30 to 6.00; under `Cc1ccc(CNC(=O)[C@H]2CCCN(c3ccnc(Nc4ccc(C(=O)N(C)C)cc4)n3)C2)cc1` [Example 154, (3S)-1-(2-((4-(dimethylcarbamoyl)phenyl)amino)-4-pyrimidinyl)-N-(4-methylbenzyl)-3-piperidinecarboxamide], 5.30 to 6.00.
The value for `Cc1ccc(CNC(=O)[C@H]2CCCN(c3ccnc(Nc4cc(C)cc(C)c4)n3)C2)cc1` [Example 155, (3S)-1-(2-((3,5-dimethylphenyl)amino)-4-pyrimidinyl)-N-(4-methylbenzyl)-3-piperidinecarboxamide] was 5.30 to 6.00.
In the case of `CSc1cccc(Nc2nccc(N3CCC[C@H](C(=O)NCc4ccc(C)cc4)C3)n2)c1` [Example 157, (3S)-N-(4-methylbenzyl)-1-(2-((3-(methylsulfanyl)phenyl)amino)-4-pyrimidinyl)-3-piperidinecarboxamide], the pIC50 is 6.00 to 7.00.
As to `Cc1ccc(CNC(=O)[C@H]2CCCN(c3ccnc(Nc4cccc(C)c4)n3)C2)cc1` [Example 158, (3S)-N-(4-methylbenzyl)-1-(2-((3-methylphenyl)amino)-4-pyrimidinyl)-3-piperidinecarboxamide], the pIC50 was 6.00 to 7.00.
Take `Cc1ccc(CNC(=O)[C@H]2CCCN(c3ccnc(Nc4cc(F)cc(F)c4)n3)C2)cc1` [Example 159, (3S)-1-(2-((3,5-difluorophenyl)amino)-4-pyrimidinyl)-N-(4-methylbenzyl)-3-piperidinecarboxamide]: the pIC50 was 5.30 to 6.00.
`Cc1ccc(CNC(=O)[C@H]2CCCN(c3ccnc(Nc4cccc(OC(C)C)c4)n3)C2)cc1` [Example 160, (3S)-N-(4-methylbenzyl)-1-(2-((3-(1-methylethoxy)phenyl)amino)-4-pyrimidinyl)-3-piperidinecarboxamide]: the negative-log IC50 (pIC50) was 6.00 to 7.00.
Under `Cc1ccc(CNC(=O)[C@H]2CCCN(c3ccnc(Nc4ccc(N5CCN(C)CC5)cc4)n3)C2)cc1` [Example 161, (3S)-N-(4-methylbenzyl)-1-(2-((4-(4-methyl-1-piperazinyl)phenyl)ami-no)-4-pyrimidinyl)-3-piperidinecarboxamide] stands 6.00 to 7.00.
The value for `Cc1ccc(CNC(=O)[C@H]2CCCN(c3ccnc(Nc4cc(C(F)(F)F)cc(C(F)(F)F)c4)n3)C2)cc1` [Example 163, (3S)-1-(2-((3,5-bis(trifluoromethyl)phenyl)amino)-4-pyrimidinyl)-N-(4-methylbenzyl)-3-piperidinecarboxamide] was 6.00 to 7.00; that for `Cc1ccc(CNC(=O)[C@H]2CCCN(c3ccnc(Nc4cccc(OC(F)(F)F)c4)n3)C2)cc1` [Example 164, (3S)-N-(4-methylbenzyl)-1-(2-((3-(trifluoromethoxy)phenyl)amino)-4-pyrimidinyl)-3-piperidinecarboxamide] was 5.30 to 6.00.
`CC(=O)Nc1ccc(Nc2nccc(N3CCC[C@H](C(=O)NCc4ccc(C)cc4)C3)n2)cc1` [Example 165, (3S)-1-(2-((4-(acetylamino)phenyl)amino)-4-pyrimidinyl)-N-(4-methylbenzyl)-3-piperidinecarboxamide]: the pIC50 was 5.30 to 6.00.
Under `Cc1ccc(CNC(=O)[C@H]2CCCN(c3ccnc(Nc4ccc(C#N)cc4)n3)C2)cc1` [Example 166, (3S)-1-(2-((4-cyanophenyl)amino)-4-pyrimidinyl)-N-(4-methylbenzyl)-3-piperidinecarboxamide] stands 5.30 to 6.00.

By pIC50 is commonly meant the negative decadic logarithm of the IC50, by convention in mol/L.
